Here are results for 39 compounds from ChEMBL document CHEMBL5500417, “Discovery of Novel 2-Oxoacetamide Derivatives as B3GAT3 Inhibitors for the Treatment of Hepatocellular Carcinoma” (J Med Chem, 2024).

For assay [1], the system named is HCCLM3. Kind of assay: cells. Conditions: Homo sapiens, HCCLM3, 72 h.
Description: Antitumor activity against human HCCLM3 cells assessed as inhibition of cell growth measured after 72 hrs by CCK-8 assay
In assay [2] the target is T1, Galactosylgalactosylxylosylprotein 3-beta-glucuronosyltransferase 3 (Homo sapiens, UniProt O94766).
T1 sequence (O94766 whole entry): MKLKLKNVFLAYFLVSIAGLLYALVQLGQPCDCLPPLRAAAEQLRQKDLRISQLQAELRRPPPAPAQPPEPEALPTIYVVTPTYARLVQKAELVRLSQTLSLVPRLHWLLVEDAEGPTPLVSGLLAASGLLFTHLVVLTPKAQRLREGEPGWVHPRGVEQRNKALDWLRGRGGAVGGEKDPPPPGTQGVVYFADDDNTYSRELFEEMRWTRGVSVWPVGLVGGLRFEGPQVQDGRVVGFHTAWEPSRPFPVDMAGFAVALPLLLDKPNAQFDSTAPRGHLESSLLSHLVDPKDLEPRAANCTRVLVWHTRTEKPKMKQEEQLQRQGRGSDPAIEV
Kind of assay: Binding affinity to CM5 sensor chip immobilized human B3GAT3 assessed as dissociation constant by SPR analysis.

For assay [3], the system named is MHCC97H. The assay is described as follows: cells. As to conditions: Homo sapiens, 72 h.
Description: Antitumor activity against human MHCC97H cells assessed as inhibition of cell growth measured after 72 hrs by CCK-8 assay
The subject of assay [4] is MHCC97H. Kind of assay: In vivo-antitumor activity against human MHCC97H cells xenografted BALB/c mouse model assessed as tumor growth inhibitor at 5 mg/kg, IG once daily measured after 31 days relative to control. As to conditions: po, 744 h, read-out: TGI.
Assay [5] deals with HCCLM3. The assay is described as follows: In vivo-antitumor activity against human HCCLM3 cells xenografted BALB/c mouse model assessed as reduction in tumor weight at 5 mg/kg, IG once daily measured after 31 days relative to control. Conditions: HCCLM3, po, 744 h, read-out: INH.

Consider `Cc1ccc(N2CCC(NC(=O)C(=O)c3c[nH]c4ccc(Br)cc34)C2=O)c(Cl)c1` (centres undefined), for which the figures for the IC50 in assay [1] and in assay [3] were 15.8 µM and 6.19 µM, respectively. Further, in assay [2], the dissociation constant Kd was found to be 113 µM.

With `Cc1ccc(C(=O)N2CCC(C)(NC(=O)C(=O)c3c[nH]c4ccc(Br)cc34)CC2)c(Cl)c1`, the IC50 in assay [1] stood at 22.2 µM; in assay [3], 21.3 µM.

With `Cc1ccc(N2CCC(NC(=O)C(=O)c3c[nH]c4ccc(F)cc34)C2=O)c(Cl)c1` (centres undefined), the values for the concentration for half-maximal inhibition (IC50) in assay [1] and in assay [3] were 44.3 µM and 35.1 µM, respectively.

On to `Cc1ccc(C(=O)N2CCCC(NC(=O)C(=O)c3c[nH]c4ccc(Br)cc34)C2)c(Cl)c1` (centres undefined), for which the IC50 came out at 31 µM in assay [1] and 17 µM in assay [3].

For the compound `Cc1ccc(N2CCC(NC(=O)C(=O)Nc3ccc4c(c3)OCO4)C2=O)c(Cl)c1` (centres undefined), the IC50 in assay [1] turned out to be 24.7 µM; in assay [3] it was 25.7 µM.

With `Cc1ccc(C(=O)N2[C@@H]3CC[C@H]2CN(C(=O)C(=O)c2c[nH]c4ccc(Br)cc24)C3)c(Cl)c1`, the IC50 in assay [1] was found to be 26.7 µM; in assay [3], 18.5 µM.

For the compound `Cc1ccc(C(=O)N2CCC(NC(=O)C(=O)c3c[nH]c4ccc(Br)cc34)C2)c(Cl)c1` (centres undefined), the IC50 came to 21.3 µM in assay [1] and 13 µM in assay [3].

For the compound `Cc1ccc(N2CCC(NC(=O)C(=O)Nc3ccc4c(c3)OCCO4)C2=O)c(Cl)c1` (centres undefined), the 50% inhibitory concentration (IC50) in assay [1] was determined as 12.2 µM; in assay [3], 14.5 µM.

As for `Cc1ccc(N2CCC(NC(=O)C(=O)c3c[nH]c4ccc(C(=O)O)cc34)C2=O)c(Cl)c1` (centres undefined), the half-inhibitory concentration (IC50) in assay [1] and in assay [3] was greater than 80 µM each time.

In the case of `Cc1ccc(N2CCC(NC(=O)C(=O)c3c[nH]c4ccc(Br)cc34)C2=O)cc1` (centres undefined), the 50% inhibitory concentration (IC50) in assay [1] and in assay [3] was greater than 80 µM throughout.

Turning to `Cc1ccc(C(=O)N2CCC(NC(=O)C(=O)c3c[nH]c4ccc(Br)cc34)CC2)c(Cl)c1`, the IC50 came out at 1530 µM in assay [1] and 28.1 µM in assay [3].

Consider `Cc1ccc(N2CCC(NC(=O)C(=O)Nc3ccc4c(c3)CCC4)C2=O)c(Cl)c1` (centres undefined), for which the IC50 in assay [1] was determined as 11.7 µM; in assay [3], 3.51 µM. In addition, the Kd in assay [2] came out at 206 µM.

As for `Cc1ccc(N2CCC(NC(=O)C(=O)c3c[nH]c4cc(C(=O)O)ccc34)C2=O)c(Cl)c1` (centres undefined), the half-maximal inhibitory concentration (IC50) in assay [1] and in assay [3] was greater than 80 µM each time.

Regarding `COC(=O)c1ccc2c(C(=O)C(=O)NC3CCN(c4ccc(C)cc4Cl)C3=O)c[nH]c2c1` (centres undefined), the half-maximal inhibitory concentration (IC50) in assay [1] is 54.8 µM; in assay [3], 46.8 µM.

As for `Cc1ccc(N2CCC(NC(=O)C(=O)Nc3ccc(-c4ccccc4)cc3)C2=O)c(Cl)c1` (centres undefined), the IC50 was determined as 17.7 µM in assay [1] and 5.59 µM in assay [3]. In addition, the dissociation constant Kd in assay [2] is 289 µM.

As for `Cc1ccc(N2CCC(NC(=O)C(=O)Nc3ccc4c(c3)C(C)(C)c3ccccc3-4)C2=O)c(Cl)c1` (centres undefined), the concentration for half-maximal inhibition (IC50) in assay [1] is greater than 80 µM; in assay [3], 9.7 µM.

As for `Cc1ccc(N2CCC(NC(=O)CC(=O)Nc3ccc(-c4ccccc4)cc3)C2=O)c(Cl)c1` (centres undefined), the concentration for half-maximal inhibition (IC50) was 60.4 µM in assay [1] and 54.7 µM in assay [3].

As to `Cc1ccc(C(=O)N2CCN(C(=O)C(=O)c3c[nH]c4ccc(Br)cc34)CC2)c(Cl)c1`, the IC50 in assay [1] amounted to 25.4 µM; in assay [3] it was 16.3 µM.

Consider `Cc1ccc(N2CCC(NC(=O)C(=O)N3CCCc4ccccc43)C2=O)c(Cl)c1` (centres undefined), for which the IC50 in assay [1] and in assay [3] was greater than 80 µM in each case.

Turning to `Cc1ccc(N2CCC(NC(=O)C(=O)c3c[nH]c4ccc(C#N)cc34)C2=O)c(Cl)c1` (centres undefined), the IC50 in assay [1] turned out to be 55.8 µM; in assay [3], 33.7 µM.

Turning to `Cc1ccc(N2CCC(NC(=O)C(=O)c3c[nH]c4ccc(C)cc34)C2=O)c(Cl)c1` (centres undefined), the 50% inhibitory concentration (IC50) came out at 53.9 µM in assay [1] and 52.8 µM in assay [3].

Regarding `O=C(NC1CCN(c2ccc(F)cc2)C1=O)C(=O)c1c[nH]c2ccc(Br)cc12` (centres undefined), the figures for the IC50 in assay [1] and in assay [3] were 24.9 µM and 11.8 µM, respectively.

For `Cc1ccc(C(=O)NC2CCN(C(=O)C(=O)c3c[nH]c4ccc(Br)cc34)C2)c(Cl)c1` (centres undefined), the results for the IC50 in assay [1] and in assay [3] were 30.8 µM and 19.4 µM, respectively.

Take `Cc1ccc(N2CCC(NC(=O)C(=O)c3c[nH]c4ccc(O)cc34)C2=O)c(Cl)c1` (centres undefined): the IC50 was greater than 80 µM in assay [1] and 72.2 µM in assay [3].

With `Cc1ccc(N2CCC(NC(=O)C(=O)Nc3ccc4c(c3)Cc3ccccc3-4)C2=O)c(Cl)c1` (centres undefined), the half-maximal inhibitory concentration (IC50) in assay [1] was found to be 14.5 µM; in assay [3] it was 14.3 µM. Also, in assay [2], the Kd amounted to 291 µM.

For `COc1cc2nccc(Oc3ccc(NC(=O)NC4CC4)c(Cl)c3)c2cc1C(N)=O` [LENVATINIB], the inhibition in vivo at 5 mg/kg came to 85% in assay [4] and 94.6% in assay [5]. The values for the IC50 in assay [1] and in assay [3] were 27.8 µM and greater than 80 µM, respectively.

For the compound `Cc1ccc(N2CCC(NC(=O)CC(=O)Nc3ccc4c(c3)Cc3ccccc3-4)C2=O)c(Cl)c1` (centres undefined), the IC50 in assay [1] is 57.3 µM; in assay [3], greater than 80 µM.

For `Cc1ccc(C(=O)NCC2CCN(C(=O)C(=O)c3c[nH]c4ccc(Br)cc34)CC2)c(Cl)c1`, the figures for the IC50 in assay [1] and in assay [3] were 23.6 µM and 12.9 µM, respectively.

As for `O=C(NC1CCN(c2ccccc2)C1=O)C(=O)c1c[nH]c2ccc(Br)cc12` (centres undefined), the 50% inhibitory concentration (IC50) in assay [1] and in assay [3] was greater than 80 µM throughout.

For the compound `COc1ccc2[nH]cc(C(=O)C(=O)NC3CCN(c4ccc(C)cc4Cl)C3=O)c2c1` (centres undefined), the IC50 in assay [1] amounted to 34.7 µM; in assay [3], 37.8 µM.

In the case of `Cc1ccc(C(=O)NC2(C)CCN(C(=O)C(=O)c3c[nH]c4ccc(Br)cc34)CC2)c(Cl)c1`, the results for the IC50 in assay [1] and in assay [3] were 59.2 µM and 27.3 µM, respectively.

As to `Cc1ccc(N2CCC(NC(=O)C(=O)c3c[nH]c4ccc(Br)cc34)C2=O)cc1Cl` (centres undefined), the IC50 in assay [1] is greater than 80 µM; in assay [3] it was 12 µM.

Consider `Cc1ccc(N2CCC(NC(=O)C(=O)c3c[nH]c4ccc(N)cc34)C2=O)c(Cl)c1` (centres undefined), for which the IC50 in assay [1] and in assay [3] was greater than 80 µM each time.

`Cc1ccc(N2CCC(NC(=O)C(=O)c3c[nH]c4ccc(Cl)cc34)C2=O)c(Cl)c1` (centres undefined): the concentration for half-maximal inhibition (IC50) came to 31 µM in assay [1] and 18.4 µM in assay [3].

As to `Cc1ccc(C(=O)NC2CCN(C(=O)C(=O)c3c[nH]c4ccc(Br)cc34)CC2)c(Cl)c1`, the values for the 50% inhibitory concentration (IC50) in assay [1] and in assay [3] were 60.8 µM and 61.5 µM, respectively.

Turning to `Cc1ccc(N2CCC(NC(=O)C(=O)NC3CCc4ccccc43)C2=O)c(Cl)c1` (centres undefined), the IC50 in assay [1] was 61.4 µM; in assay [3], greater than 80 µM.

Turning to `Cc1ccc(C(=O)N(C)C2CCN(C(=O)C(=O)c3c[nH]c4ccc(Br)cc34)CC2)c(Cl)c1`, the half-maximal inhibitory concentration (IC50) in assay [1] was 22.2 µM; in assay [3], 11.8 µM.

Regarding `Cc1ccc(N2CCC(NC(=O)C(=O)c3c[nH]c4ccccc34)C2=O)c(Cl)c1` (centres undefined), the IC50 in assay [1] was determined as 60 µM; in assay [3], 52.7 µM.

For the compound `O=C(NC1CCN(c2ccc(OC(F)(F)F)cc2)C1=O)C(=O)c1c[nH]c2ccc(Br)cc12` (centres undefined), the values for the IC50 in assay [1] and in assay [3] were 18.6 µM and 15.3 µM, respectively.
